# Results published in US9364467B2 (Salix Pharmaceuticals, Ltd, priority 2012, dated 2016).
# System: Enterobacteriaceae spp. strains
# Assay: In vitro activity (MIC) against Enterobacteriaceae spp. strains
smiles,measurement,setting,value
"CO[C@H]1/C=C/O[C@@]2(C)Oc3c(C)c(O)c4c(O)c(c5c(nc6cc(C)ccn65)c4c3C2=O)NC(=O)/C(C)=C\C=C\[C@H](C)[C@H](O)[C@@H](C)[C@@H](O)[C@@H](C)[C@H](OC(C)=O)[C@@H]1C [Rifaximin, reference compound]",MIC,"Escherichia coli, E. coli 117",16 µg/mL
same,MIC,"Escherichia coli, E. coli 118",32 µg/mL
same,MIC,"Escherichia coli, E. coli 120",32 µg/mL
same,MIC,"Escherichia coli, E. coli 140",32 µg/mL
same,MIC,"Escherichia coli, E. coli 171",32 µg/mL
same,MIC,"Escherichia coli, E. coli 342",32 µg/mL
same,MIC,"Escherichia coli, E. coli 343",32 µg/mL
same,MIC,"Escherichia coli, E. coli 345",32 µg/mL
same,MIC,"Escherichia coli, E. coli 349",32 µg/mL
same,MIC,"Escherichia coli, E. coli 351",32 µg/mL
same,MIC,"Klebsiella aerogenes, E. aerogenes 235",32 µg/mL
same,MIC,"Klebsiella aerogenes, E. aerogenes 281",32 µg/mL
same,MIC,"Klebsiella aerogenes, E. aerogenes 290",32 µg/mL
same,MIC,"Klebsiella aerogenes, E. aerogenes 1023",32 µg/mL
same,MIC,"Klebsiella aerogenes, E. aerogenes 1030",32 µg/mL
same,MIC,"Klebsiella aerogenes, E. aerogenes 1031",32 µg/mL
same,MIC,"Klebsiella oxytoca, K. oxytoca 4",32 µg/mL
same,MIC,"Klebsiella oxytoca, K. oxytoca 18",32 µg/mL
same,MIC,"Klebsiella oxytoca, K. oxytoca 479",32 µg/mL
same,MIC,"Klebsiella oxytoca, K. oxytoca 499",32 µg/mL
same,MIC,"Klebsiella pneumoniae, K. pneumoniae 17",32 µg/mL
same,MIC,"Klebsiella pneumoniae, K. pneumoniae 19",32 µg/mL
same,MIC,"Klebsiella pneumoniae, K. pneumoniae 76",32 µg/mL
same,MIC,"Klebsiella pneumoniae, K. pneumoniae 80",32 µg/mL
same,MIC,"Klebsiella pneumoniae, K. pneumoniae 91",32 µg/mL
same,MIC,"Klebsiella pneumoniae, K. pneumoniae 1064",32 µg/mL
same,MIC,"Morganella morganii, M. morganii 42",16 µg/mL
same,MIC,"Morganella morganii, M. morganii 48",32 µg/mL
same,MIC,"Morganella morganii, M. morganii 50",32 µg/mL
same,MIC,"Morganella morganii, M. morganii 57",32 µg/mL
same,MIC,"Morganella morganii, M. morganii 67",32 µg/mL
same,MIC,"Morganella morganii, M. morganii 101",32 µg/mL
same,MIC,"Morganella morganii, M. morganii 105",32 µg/mL
same,MIC,"Morganella morganii, M. morganii 108",32 µg/mL
same,MIC,"Morganella morganii, M. morganii 453",8 µg/mL
same,MIC,"Morganella morganii, M. morganii 458",32 µg/mL
same,MIC,"Morganella morganii, M. morganii 461",32 µg/mL
same,MIC,"Morganella morganii, M. morganii 462",32 µg/mL
same,MIC,"Morganella morganii, M. morganii 923",16 µg/mL
same,MIC,"Morganella morganii, M. morganii 932",32 µg/mL
same,MIC,"Morganella morganii, M. morganii 935",32 µg/mL
same,MIC,"Morganella morganii, M. morganii 1006",8 µg/mL
same,MIC,"Proteus mirabilis, P. mirabilis 465",32 µg/mL
same,MIC,"Proteus mirabilis, P. mirabilis 466",32 µg/mL
same,MIC,"Proteus mirabilis, P. mirabilis 469",32 µg/mL
same,MIC,"Proteus mirabilis, P. mirabilis 470",16 µg/mL
same,MIC,"Proteus mirabilis, P. mirabilis 471",8 µg/mL
same,MIC,"Proteus mirabilis, P. mirabilis 472",8 µg/mL
same,MIC,"Proteus mirabilis, P. mirabilis 473",16 µg/mL
same,MIC,"Proteus mirabilis, P. mirabilis 477",32 µg/mL
same,MIC,"Proteus mirabilis, P. mirabilis 479",32 µg/mL
same,MIC,"Proteus mirabilis, P. mirabilis 480",32 µg/mL
same,MIC,"Proteus mirabilis, P. mirabilis 489",32 µg/mL
same,MIC,"Proteus mirabilis, P. mirabilis 928",32 µg/mL
same,MIC,"Proteus mirabilis, P. mirabilis 972",32 µg/mL
same,MIC,"Proteus mirabilis, P. mirabilis 983",16 µg/mL
same,MIC,"Proteus mirabilis, P. mirabilis 985",32 µg/mL
same,MIC,"Proteus mirabilis, P. mirabilis 987",32 µg/mL
same,MIC,"Proteus mirabilis, P. mirabilis 988",8 µg/mL
same,MIC,"Proteus mirabilis, P. mirabilis 990",32 µg/mL
same,MIC,"Proteus mirabilis, P. mirabilis 991",32 µg/mL
same,MIC,"Proteus mirabilis, P. mirabilis 993",16 µg/mL
same,MIC,"Proteus mirabilis, P. mirabilis 995",32 µg/mL
same,MIC,"Proteus mirabilis, P. mirabilis 996",32 µg/mL
same,MIC,"Proteus mirabilis, P. mirabilis 997",32 µg/mL
same,MIC,"Proteus mirabilis, P. mirabilis 998",8 µg/mL
same,MIC,"Providencia stuartii, P. stuartii 94",32 µg/mL
same,MIC,"Providencia stuartii, P. stuartii 299",16 µg/mL
same,MIC,"Providencia stuartii, P. stuartii 301",32 µg/mL
same,MIC,"Providencia stuartii, P. stuartii 306",16 µg/mL
same,MIC,"Providencia stuartii, P. stuartii 312",32 µg/mL
same,MIC,"Providencia stuartii, P. stuartii 459",32 µg/mL
same,MIC,S. odorifera 59,32 µg/mL
same,MIC,"Serratia marcescens, S. marcescens 38",32 µg/mL
same,MIC,"Serratia marcescens, S. marcescens 45",32 µg/mL
same,MIC,"Serratia marcescens, S. marcescens 59",32 µg/mL
same,MIC,"Serratia marcescens, S. marcescens 63",32 µg/mL
same,MIC,"Stenotrophomonas maltophilia, S. maltophilia 1203",32 µg/mL
same,MIC,"Stenotrophomonas maltophilia, S. maltophilia 1208",32 µg/mL
